Reference: patent US20260216347A1, “Substituted Imidazo-Based Compounds as Ligand Directed Degraders of IRAK3” (Celgene Corporation, priority 2022, published 2026)

What was measured:
IRAK3-ePL = target: T1, IRAK3-ePL (Homo sapiens, UniProt Q9Y616); assay: IRAK3-ePL overexpressing degradation assay (InCELL Hunter luminescence, dose response); type: cell-based; conditions: for IRAK3 ePL degradation Ymin: lowest percentage of target protein remaining following compound treatment; for DC50: read-out: IRAK3 ePL degradation EC50
T1 construct: expressed in transfected cells; host or cells: 293T CRBN OE/GSPT1 G575N KI cells, lentiviral transduction, puromycin selected
How it was run: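 Lenti-X 293T CRBN/GSPT1 G575N cells stably expressing IRAK3-ePL (5,000/well) treated overnight at 37° C with 10-point 3-fold dilutions from 10 μM, 0.2% DMSO. InCELL Hunter luminescence, background subtracted using Ataluren wells and normalized to DMSO; EC50 from four-parameter logistic fit.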

IRAK3 = target: T2, IRAK3 (Homo sapiens, UniProt Q9Y616); assay: IRAK endogenous HTRF degradation assay (Total-IRAK3 HTRF kit); type: cell-based; conditions: overnight incubation, lowest percentage of protein remaining
T2 construct: IRAK Endogenous HTRF Degradation Assay; endogenous in cells
T2 sequence (Q9Y616 1-596): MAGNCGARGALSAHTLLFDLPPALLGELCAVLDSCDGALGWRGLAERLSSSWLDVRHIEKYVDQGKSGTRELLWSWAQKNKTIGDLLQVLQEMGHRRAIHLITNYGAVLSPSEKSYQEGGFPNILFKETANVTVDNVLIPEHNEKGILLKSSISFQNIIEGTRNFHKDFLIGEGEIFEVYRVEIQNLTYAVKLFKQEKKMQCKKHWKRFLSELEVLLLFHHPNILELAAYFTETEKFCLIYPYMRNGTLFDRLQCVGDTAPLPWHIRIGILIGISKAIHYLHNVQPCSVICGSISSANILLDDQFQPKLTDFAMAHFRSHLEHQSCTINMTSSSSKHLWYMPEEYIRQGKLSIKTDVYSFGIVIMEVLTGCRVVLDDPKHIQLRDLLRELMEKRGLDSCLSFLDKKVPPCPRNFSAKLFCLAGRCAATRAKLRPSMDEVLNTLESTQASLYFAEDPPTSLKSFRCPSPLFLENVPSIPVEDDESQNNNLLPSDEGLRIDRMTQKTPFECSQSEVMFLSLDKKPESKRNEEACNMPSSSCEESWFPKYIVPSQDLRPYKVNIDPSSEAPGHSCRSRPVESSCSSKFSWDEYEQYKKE
Description: Example B2. IRAK Endogenous HTRF Degradation Assay
Cells (~50 k) were plated in Cisbio 96-well low volume white plates (Cisbio: cat #66PL96005). Compounds were dissolved in DMSO and a 3-fold serial dilution was performed using a TECAN D300E. Cells were incubated with the compound overnight. Total-IRAK3 HTRF kit from Cisbio was used for degradation analysis (Cisbio: 63ADK101PEH). Cryptate and D2 antibodies were diluted in Detection buffer as per manufacturers recommendation. Then 2 μL of each solution was added to 16 μL lysate. Buffer control (lysis buffer detection buffer), Cryptate control (lysis buffer+cryptate antibody+detection buffer), and Negative control (lysis buffer+cryptate antibody+D2 antibody) were made as per manufacturers recommendation. Post incubation with antibodies the HTRF signal was measured using a Perkin Elmer Envision reader and the HTRF signal was calculated using formula: (Emission at 665 nm/Emission at 615 nm)*10,000. All HTRF values were normalized to the average value of DMSO. The average value of the DMSO control wells were set to equal 100% of the relative IRAK3 protein levels. Normalized luminescence values were plotted on a graph as a function of compound concentration. Compound concentration was plotted on the x-axis and the corresponding normalized IRAK3 protein levels on the y-axis. The EC50 value (the half-maximum effective concentration) of a compound for the degradation of the IRAK3 was calculated using a four-parameter logistic model (sigmoidal dose-response model) (FIT=(A+{(B−A)/1+[(C/x)D]})) where C is the inflection point (EC50), D is the […], and A and B are the low and high limits of the fit, respectively). The Ymin was calculated by determining the lowest percentage of target protein remaining following compound treatment. Dmax was calculated from Ymin (% Dmax=100−Ymin).
Using these assays, IC50, Dmax, EC50, and DC50 values of the following compounds were determined. Dmax is defined as the maximum percent degradation achieved and DC50 is the concentration at which 50% degradation is achieved.

Row | IRAK3 ePL degradation Ymin (IRAK3-ePL) [%] | DC50 (IRAK3-ePL) [nM] | IRAK3 HTRF degradation Ymin (IRAK3) [%] | Structure (SMILES)
1 | 23 | 0.51 | 9.8 | COc1cc(C2CCC(=O)NC2=O)ccc1N1CCN(CCN2CCC(n3cc(Nc4ncc(-c5cc(C)c(F)cc5F)n5ccnc45)cn3)CC2)CC1 (stereo not drawn) [Compound 42, 3-(4-(4-(2-(4-(4-((5-(2,4-difluoro-5-methylphenyl)imdazo [1,2-a]pyrazin-8-yl)amino)-1H-pyrazol-1-yl)piperidin-1-yl)ethyl)piperazin-1-yl)-3-methoxyphenyl) piperidine-2,6-dione]
2 | 26 | 0.97 | 8.1 | Cc1cc(-c2cnc(Nc3cnn(C4CCN(CCN5CCN(c6ccc(C7CCC(=O)NC7=O)cc6)[C@@H](C)C5)CC4)c3)c3nccn23)c(F)cc1F (stereo partly drawn) [Compound 44, 3-(4-((S)-4-(2-(4-(4-((5-(2,4-difluoro-5-methylphenyl)imdazo [1,2-a]pyrazin-8-yl)amino)-1H-pyrazol-1-yl)piperidin-1-yl)ethyl)-2-methylpiperazin-1-yl)phenyl) piperidine-2,6-dione]
3 | 26 | 7.2 | 15 | Cc1cccc(-c2cnc(Nc3cnn([C@H]4CC[C@@H](CCN5CCN(c6ccc(C7CCC(=O)NC7=O)cc6)CC5)CC4)c3)c3nccn23)c1 (stereo partly drawn) [Compound 45, 3-(4-(4-(2-((cis)-4-(4-((5-(m-tolyl)imidazo [1,2-a]pyrazin-8-yl)amino)-1H-pyrazol-1-yl)cyclohexyl)ethyl)piperazin-1-yl)phenyl) piperidine-2,6-dione]
4 | 25 | 1.3 | 9.8 | Cc1cc(-c2cnc(Nc3cnn(C4CCN(CCN5CCN(c6ccc(C7CCC(=O)NC7=O)cc6)[C@H](C)C5)CC4)c3)c3nccn23)c(F)cc1F (stereo partly drawn) [Compound 50, 3-(4-((R)-4-(2-(4-(4-((5-(2,4-difluoro-5-methylphenyl)imdazo [1,2-a]pyrazin-8-yl)amino)-1H-pyrazol-1-yl)piperidin-1-yl)ethyl)-2-methylpiperazin-1-yl)phenyl) piperidine-2,6-dione]
5 | 24 | 2.5 | 9.3 | O=C1CCC(c2ccc(N3CCN(CCN4CCC(n5cc(Nc6ncc(-c7cc8c(cc7F)OCCN8)n7ccnc67)cn5)CC4)CC3)cc2)C(=O)N1 (stereo not drawn) [Compound 51, 3-(4-(4-(2-(4-(4-((5-(7-fluoro-3,4-dihydro-2H-benzo[b][1,4]oxazin-6-yl)imidazo[1,2-a]pyrazin-8-yl)amino)-1H-pyrazol-1-yl)piperidin-1-yl)ethyl)piperazin-1-yl)phenyl) piperidine-2,6-dione]
6 | 40 | 96 | 74 | Cc1cc(-c2cnc(N(C)c3cnn(C4CCN(CCN5CCN(c6ccc(C7CCC(=O)NC7=O)cc6)CC5)CC4)c3)c3nccn23)c(F)cc1F (stereo not drawn) [Compound 52, 3-(4-(4-(2-(4-(4-((5-(2,4-difluoro-5-methylphenyl)imdazo [1,2-a]pyrazin-8-yl)(methyl)amino)-1H-pyrazol-1-yl)piperidin-1-yl)ethyl)piperazin-1-yl)phenyl) piperidine-2,6-dione]
7 | 22 | 0.9 | 11 | Cc1cc(-c2cnc(Nc3cnn(C4CCN(CCN5CCN(c6ccc(C7CCC(=O)NC7=O)c(F)c6)CC5)CC4)c3)c3nccn23)c(F)cc1F (stereo not drawn) [Compound 53, 3-(4-(4-(2-(4-(4-((5-(2,4-difluoro-5-methylphenyl)imdazo [1,2-a]pyrazin-8-yl)amino)-1H-pyrazol-1-yl)piperidin-1-yl)ethyl)piperazin-1-yl)-2-fluorophenyl)piper idine-2,6-dione]
